Measurements from paper PMC3025750 (Journal of medicinal chemistry, 2010).
Entries after “also recorded” stand apart in the source; their conditions may differ.

Assays:
[1] = tested on: TCR-induced activation of the proximal IL-2 promoter (NFAT/AP-1) in Jurkat TAg T cells; test: NFAT/AP-1 dual luciferase reporter assay; assay type: cell-based; conditions: for NFAT/AP-1 activation in TCR-stimulated sample compared to DMSO control / NFAT/AP-1 signaling in unstimulated sample: 5 μM compound; for NFAT/AP-1 activation in TCR-stimulated sample compared to DMSO control: 45 min, then OKT3 6 hours; for NFAT/AP-1 activation in TCR-stimulated sample compared to DMSO control / dose-dependence of TCR-induced NFAT/AP-1 activation / NFAT/AP-1 signaling in unstimulated sample: Jurkat TAg T cells; for dose-dependence of TCR-induced NFAT/AP-1 activation: dose-response 0.1 to 30 μM; for NFAT/AP-1 signaling in unstimulated sample: no TCR stimulation
[2] = tested on: Lck-pY394 and pζ-chain phosphorylation in Jurkat TAg T cells; test: Immunoblotting of Lyp's substrates Lck-pY394 and pζ-chain after TCR stimulation; assay type: cell-based; conditions: 45 min at 37°C, then TCR stimulation, immunoblot
[3] = target: recombinant Lyp (Homo sapiens, UniProt Q9Y2R2); conditions: ratio of IC50 values
Chain of recombinant Lyp (Q9Y2R2 2-309): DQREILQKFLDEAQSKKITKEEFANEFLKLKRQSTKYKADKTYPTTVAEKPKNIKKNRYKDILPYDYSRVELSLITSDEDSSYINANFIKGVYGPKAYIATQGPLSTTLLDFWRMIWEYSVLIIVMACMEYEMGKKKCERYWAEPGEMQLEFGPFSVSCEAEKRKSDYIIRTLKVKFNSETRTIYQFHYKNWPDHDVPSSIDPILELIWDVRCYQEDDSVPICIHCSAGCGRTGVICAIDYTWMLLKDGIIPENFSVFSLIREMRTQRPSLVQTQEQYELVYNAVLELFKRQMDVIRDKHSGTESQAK

Row | SMILES | compound concentration at which NFAT/AP-1 activation was augmented [1] | NFAT/AP-1 activation in TCR-stimulated sample compared to DMSO control [1] | dose-dependence of TCR-induced NFAT/AP-1 activation [1] | concentration at which pTyr levels of Lck-pY394 and pζ-chain were augmented [2] | NFAT/AP-1 signaling in unstimulated sample [1] | improvement of Lyp inhibitory activity over the original compound 478 [3]
1 | Cc1ccc(-c2oc3cc(O)c(C(=O)O)cc3c2-c2cn(CCCC(=O)Nc3cccc4ccccc34)nn2)cc1 [Compound 522, 6-hydroxy-3-(1-(4-(naphthalen-1-ylamino)-4-oxobutyl)-1H-1,2,3-triazol-4-yl)-2-p-tolylbenzofuran-5-carboxylic acid] | submicromolar | considerable higher NFAT/AP-1 activation | dose-dependent effect | 10 μM |  | 
2 | O=C(CCCn1cc(-c2c(-c3ccccc3)oc3cc(O)c(C(=O)O)cc23)nn1)Nc1ccc(Br)c2ccccc12 [Compound 482] |  |  |  |  | substantially augmented signaling; also recorded: enhanced T cell signaling in a non TCR-mediated manner | 
3 | Cc1ccc(-c2oc3cc(O)c(C(=O)O)cc3c2-c2cn(CCCC(=O)Nc3ccc(Cl)c4ccccc34)nn2)cc1 [Compound 525, 3-(1-(4-(4-chloronaphthalen-1-ylamino)-4-oxobutyl)-1H-1,2,3-triazol-4-yl)-6-hydroxy-2-p-tolylbenzofuran-5-carboxylic acid] | submicromolar | considerable higher NFAT/AP-1 activation | dose-dependent effect | 30 μM |  | 
4 | O=C(CCCn1cc(-c2c(-c3ccccc3)oc3cc(O)c(C(=O)O)cc23)nn1)Nc1cccc2ccccc12 [Compound 478, reference compound] |  | did not show an effect |  |  |  | 
5 | COC(=O)c1cc2c(-c3cn(CCCC(=O)Nc4ccc(Cl)c5ccccc45)nn3)c(-c3ccccc3)oc2cc1O [Compound 486, Methyl 3-(1-(4-(4-chloronaphthalen-1-ylamino)-4-oxobutyl)-1H-1,2,3-triazol-4-yl)-6-hydroxy-2-phenylbenzofuran-5-carboxylate] | submicromolar | considerable higher NFAT/AP-1 activation | dose-dependent effect | 5 μM |  | 
6 | COc1ccc2nc(NC(=O)CCCn3cc(-c4c(-c5cccc(C)c5)oc5cc(O)c(C(=O)O)cc45)nn3)sc2c1 [Compound 630, 6-hydroxy-3-(1-(4-(6-methoxybenzo[d]thiazol-2-ylamino)-4-oxobutyl)-1H-1,2,3-triazol-4-yl)-2-m-tolylbenzofuran-5-carboxylic acid] | ≥ 3 µM | considerable higher NFAT/AP-1 activation | dose-dependent effect | 30 μM |  | 
7 | Cc1ccc(-c2oc3cc(O)c(C(=O)O)cc3c2-c2cn(CCCC(=O)Nc3ccc(Br)c4ccccc34)nn2)cc1 [Compound 526] |  | modest |  |  | substantially augmented signaling; also recorded: enhanced T cell signaling in a non TCR-mediated manner | 17 fold
8 | O=C(CCn1cc(-c2c(-c3ccccc3)oc3cc(O)c(C(=O)O)cc23)nn1)Nc1cccc2ccccc12 [Compound 495] |  | considerable higher NFAT/AP-1 activation |  |  |  | 
9 | COc1ccc(-c2oc3cc(O)c(C(=O)O)cc3c2-c2cn(CCCC(=O)Nc3cccc4ccccc34)nn2)cc1 [Compound 584, 6-hydroxy-2-(4-methoxyphenyl)-3-(1-(4-(naphthalen-1-ylamino)-4-oxobutyl)-1H-1,2,3-triazol-4-yl)benzofuran-5-carboxylic acid] | submicromolar | considerable higher NFAT/AP-1 activation | dose-dependent effect | 3 μM |  | 
10 | Cc1ccc(-c2oc3cc(O)c(C(=O)O)cc3c2-c2cn(CCCC(=O)Nc3cccc4cccnc34)nn2)cc1 [Compound 523] |  | considerable higher NFAT/AP-1 activation |  |  |  | 
11 | Cc1ccc(-c2oc3cc(O)c(C(=O)O)cc3c2-c2cn(CCC(=O)Nc3cccc4ccccc34)nn2)cc1 [Compound 530] |  | considerable higher NFAT/AP-1 activation |  |  |  | 
12 | O=C(CCCCn1cc(-c2c(-c3ccccc3)oc3cc(O)c(C(=O)O)cc23)nn1)Nc1cccc2ccccc12 [Compound 496] |  | considerable higher NFAT/AP-1 activation |  |  |  | 
